Reference: patent publication US11725011B2, “Bicyclic urea kinase inhibitors and uses thereof” (The Broad Institute, Inc., priority 2016, dated 2023)

Experiments:
SIK1 = SIK1 (Homo sapiens (Human), UniProt P57059); experiment: Percent activity against SIK1 at 1 μM; type: biochemical; details: for SIK1 % ACTIVITY: compound at 1 μM, approximate Km for ATP
SIK2 = SIK2 (Homo sapiens (Human), UniProt Q9H0K1); experiment: Percent activity against SIK2 at 1 μM; type: biochemical; details: for SIK2 % ACTIVITY: compound at 1 μM, approximate Km for ATP
Chain of SIK2 (Q9H0K1 whole entry): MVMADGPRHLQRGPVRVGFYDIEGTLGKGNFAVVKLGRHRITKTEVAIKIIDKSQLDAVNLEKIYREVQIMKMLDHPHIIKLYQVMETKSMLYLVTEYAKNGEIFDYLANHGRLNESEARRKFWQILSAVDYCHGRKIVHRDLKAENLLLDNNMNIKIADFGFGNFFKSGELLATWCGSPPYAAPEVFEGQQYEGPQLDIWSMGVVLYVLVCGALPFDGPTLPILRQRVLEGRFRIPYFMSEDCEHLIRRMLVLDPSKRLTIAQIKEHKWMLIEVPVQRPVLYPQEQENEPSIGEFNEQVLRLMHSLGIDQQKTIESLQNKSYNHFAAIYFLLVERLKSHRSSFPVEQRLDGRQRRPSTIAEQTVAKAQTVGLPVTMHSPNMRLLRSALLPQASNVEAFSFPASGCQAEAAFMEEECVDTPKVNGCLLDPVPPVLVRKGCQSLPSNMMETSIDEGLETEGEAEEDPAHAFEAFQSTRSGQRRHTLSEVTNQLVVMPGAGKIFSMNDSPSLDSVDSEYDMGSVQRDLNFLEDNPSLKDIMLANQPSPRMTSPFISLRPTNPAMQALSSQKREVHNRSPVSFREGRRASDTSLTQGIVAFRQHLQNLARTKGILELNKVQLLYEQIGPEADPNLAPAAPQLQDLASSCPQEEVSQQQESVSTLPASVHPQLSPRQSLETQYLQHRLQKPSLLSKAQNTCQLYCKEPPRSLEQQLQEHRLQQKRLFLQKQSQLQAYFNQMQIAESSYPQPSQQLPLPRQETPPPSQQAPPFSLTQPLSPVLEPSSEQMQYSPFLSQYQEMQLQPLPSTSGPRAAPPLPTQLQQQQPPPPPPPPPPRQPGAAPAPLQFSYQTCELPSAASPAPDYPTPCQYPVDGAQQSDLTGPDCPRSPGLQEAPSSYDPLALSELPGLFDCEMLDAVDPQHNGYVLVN

SIK3 = SIK3 (Homo sapiens (Human), UniProt Q9Y2K2); experiment: Percent activity against SIK3 at 1 μM; type: biochemical; details: for SIK3 % ACTIVITY: compound at 1 μM, approximate Km for ATP
Chain of SIK3 (Q9Y2K2 whole entry): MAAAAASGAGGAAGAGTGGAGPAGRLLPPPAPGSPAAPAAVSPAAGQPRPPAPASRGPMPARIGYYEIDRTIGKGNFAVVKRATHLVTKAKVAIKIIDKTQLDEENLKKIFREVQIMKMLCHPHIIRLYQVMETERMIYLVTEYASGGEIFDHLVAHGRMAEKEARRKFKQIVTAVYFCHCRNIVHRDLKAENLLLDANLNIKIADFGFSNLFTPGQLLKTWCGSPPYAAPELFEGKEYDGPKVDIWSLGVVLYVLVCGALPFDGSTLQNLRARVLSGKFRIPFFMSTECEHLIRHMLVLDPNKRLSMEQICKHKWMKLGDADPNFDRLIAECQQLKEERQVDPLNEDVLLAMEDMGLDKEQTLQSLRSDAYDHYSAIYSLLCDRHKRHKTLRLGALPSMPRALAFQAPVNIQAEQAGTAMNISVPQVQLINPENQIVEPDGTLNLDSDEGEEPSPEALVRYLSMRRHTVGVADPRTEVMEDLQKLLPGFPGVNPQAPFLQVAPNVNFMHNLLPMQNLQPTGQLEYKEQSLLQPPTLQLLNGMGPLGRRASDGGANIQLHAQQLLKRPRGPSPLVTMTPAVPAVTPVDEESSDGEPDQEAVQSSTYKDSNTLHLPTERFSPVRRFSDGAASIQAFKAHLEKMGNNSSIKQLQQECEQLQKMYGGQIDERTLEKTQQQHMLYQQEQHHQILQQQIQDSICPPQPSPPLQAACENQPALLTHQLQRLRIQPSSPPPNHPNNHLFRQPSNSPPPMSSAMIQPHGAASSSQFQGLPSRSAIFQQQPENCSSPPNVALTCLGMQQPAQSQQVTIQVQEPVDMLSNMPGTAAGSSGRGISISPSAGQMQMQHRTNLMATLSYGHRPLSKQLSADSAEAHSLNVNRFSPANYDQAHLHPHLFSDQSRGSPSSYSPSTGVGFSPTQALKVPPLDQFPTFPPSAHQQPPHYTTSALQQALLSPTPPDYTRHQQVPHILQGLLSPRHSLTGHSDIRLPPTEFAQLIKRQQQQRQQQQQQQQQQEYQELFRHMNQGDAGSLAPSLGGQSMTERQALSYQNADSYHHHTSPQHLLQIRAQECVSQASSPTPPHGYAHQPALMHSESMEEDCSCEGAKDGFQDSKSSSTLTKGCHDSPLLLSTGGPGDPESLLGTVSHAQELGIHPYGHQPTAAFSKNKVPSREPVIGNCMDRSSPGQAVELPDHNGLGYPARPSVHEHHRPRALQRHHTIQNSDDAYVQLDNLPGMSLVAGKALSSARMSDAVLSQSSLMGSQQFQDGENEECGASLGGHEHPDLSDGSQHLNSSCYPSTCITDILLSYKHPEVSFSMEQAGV

[1] = qAC50 biological assay (Table 4); details: for Data Mode: curve direction of qAC50 data
Viability loss (Table 4) = type: cell-based
[2] = molecular target: full length His6-MBP-tagged hSIK2 (Homo sapiens (Human), UniProt Q9H0K1); experiment: SIK2 kinase activity assay (Caliper-based mobility shift); type: biochemical; details: 4 nM hSIK2, 30 μM ATP, 1 hr, rt
Chain of full length His6-MBP-tagged hSIK2 (Q9H0K1 whole entry): as the sequence (Q9H0K1 whole entry) above
Method: Reactions were quenched by adding 20 mM EDTA (pH 8) after 1 hr, and percentage of substrate conversion was measured by LabChip EZ Reader II (PerkinElmer).

Chain of SIK1 (P57059 whole entry): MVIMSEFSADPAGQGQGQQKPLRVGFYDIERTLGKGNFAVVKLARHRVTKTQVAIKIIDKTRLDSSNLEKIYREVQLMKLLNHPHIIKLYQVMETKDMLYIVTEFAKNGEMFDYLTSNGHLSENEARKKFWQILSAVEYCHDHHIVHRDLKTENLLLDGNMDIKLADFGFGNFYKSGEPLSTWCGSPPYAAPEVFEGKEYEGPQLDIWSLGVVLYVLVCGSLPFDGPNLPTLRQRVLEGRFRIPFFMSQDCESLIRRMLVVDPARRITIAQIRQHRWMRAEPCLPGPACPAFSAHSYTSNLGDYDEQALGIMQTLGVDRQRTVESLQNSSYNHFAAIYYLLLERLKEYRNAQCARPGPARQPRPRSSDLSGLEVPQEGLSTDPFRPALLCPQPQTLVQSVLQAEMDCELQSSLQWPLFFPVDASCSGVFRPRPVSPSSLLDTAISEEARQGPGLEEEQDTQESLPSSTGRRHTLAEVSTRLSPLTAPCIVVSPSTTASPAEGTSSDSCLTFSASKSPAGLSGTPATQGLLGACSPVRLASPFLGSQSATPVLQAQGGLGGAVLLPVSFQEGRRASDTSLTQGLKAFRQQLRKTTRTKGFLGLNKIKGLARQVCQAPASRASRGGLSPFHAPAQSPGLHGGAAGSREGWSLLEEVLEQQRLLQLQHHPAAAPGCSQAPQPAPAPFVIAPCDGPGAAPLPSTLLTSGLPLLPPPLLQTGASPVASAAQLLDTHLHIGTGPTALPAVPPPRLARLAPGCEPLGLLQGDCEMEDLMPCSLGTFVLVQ

Cc1ccc(Nc2ncc3c(n2)N(C)C(=O)N(c2cc(NC(=O)c4cccc(C(F)(F)F)c4)ccc2C)C3)cn1 [GNF-7]
SIK1 % ACTIVITY (SIK1): 12.0% | SIK2 % ACTIVITY (SIK2): 27.4%

COc1ccc(N2C(=O)N(c3c(C)cccc3C)Cc3cnc(Nc4ccc(N5CCN(C)CC5)cc4OC)nc32)c(OC)c1 [HG-11-139-01]
Enzyme activity at 1 μM (%) SIK1 (SIK1): 15.3% | SIK1 % ACTIVITY (SIK1): 15.3% | Enzyme activity at 1 μM (%) SIK2 (SIK2): 2.1% | SIK2 % ACTIVITY (SIK2): 2.1% | Enzyme activity at 1 μM (%) SIK3 (SIK3): 7.5% | SIK3 % ACTIVITY (SIK3): 7.5% | qAC50 [1]: <50 nM | Data Mode [1]: increasing | Viability loss AC40 (Viability loss (Table 4)): 8910 nM | Viability loss data mode (Viability loss (Table 4)): decreasing

CN1CCN(c2ccc(Nc3ncc4c(n3)N(C)C(=O)N(c3ccccc3)C4)cc2)CC1 [HG-11-137-01]
Enzyme activity at 1 μM (%) SIK1 (SIK1): 12.9% | SIK1 % ACTIVITY (SIK1): 12.9% | Enzyme activity at 1 μM (%) SIK2 (SIK2): 1.4% | SIK2 % ACTIVITY (SIK2): 1.4% | Enzyme activity at 1 μM (%) SIK3 (SIK3): 8.6% | SIK3 % ACTIVITY (SIK3): 8.6% | qAC50 [1]: 466 nM | Data Mode [1]: increasing | Viability loss AC40 (Viability loss (Table 4)): 6960 nM | Viability loss data mode (Viability loss (Table 4)): decreasing

Cc1ccc(NC(=O)c2cccc(C(F)(F)F)c2)cc1N1Cc2cnc(Nc3ccc(N4CCN(C)CC4)cc3)nc2N(C)C1=O [HG-11-23-01]
Enzyme activity at 1 μM (%) SIK1 (SIK1): 12.5% | SIK1 % ACTIVITY (SIK1): 12.5% | Enzyme activity at 1 μM (%) SIK2 (SIK2): 7% | SIK2 % ACTIVITY (SIK2): 7.0% | qAC50 [1]: <50 nM | Data Mode [1]: decreasing | Viability loss AC40 (Viability loss (Table 4)): 106 nM | Viability loss data mode (Viability loss (Table 4)): decreasing

COc1cc(N2CCN(C)CC2)ccc1Nc1ncc2c(n1)N(C)C(=O)N(c1ccccc1)C2 [HG-11-139-02]
SIK1 % ACTIVITY (SIK1): 36.0% | SIK2 % ACTIVITY (SIK2): 32.8% | qAC50 [1]: >26000 nM | Data Mode [1]: increasing | Viability loss AC40 (Viability loss (Table 4)): > 10000 nM | Viability loss data mode (Viability loss (Table 4)): inactive

COc1ccc(N2C(=O)N(c3c(C)cccc3C)Cc3cnc(Nc4cc(N5CCOCC5)cc(N5CCN(C)CC5)c4)nc32)c(OC)c1 [HG-11-143-01]
Enzyme activity at 1 μM (%) SIK1 (SIK1): 7.9% | SIK1 % ACTIVITY (SIK1): 7.9% | Enzyme activity at 1 μM (%) SIK2 (SIK2): 4.3% | SIK2 % ACTIVITY (SIK2): 4.3% | Enzyme activity at 1 μM (%) SIK3 (SIK3): 9.3% | SIK3 % ACTIVITY (SIK3): 9.3% | qAC50 [1]: 469 nM | Data Mode [1]: decreasing

COc1ccc(N2C(=O)N(c3c(C)cccc3Cl)Cc3cnc(Nc4ccc(N5CCN(C)CC5)cc4OC)nc32)nc1 [YKL-05-96]
IC50 [2]: 34 ± 14 nM

COc1ccc(N2C(=O)N(c3c(C)cccc3Cl)Cc3cnc(Nc4ccc(N5CCN(C)CC5)cc4)nc32)nc1 [YKL-05-95]
IC50 [2]: 6 ± 3 nM
